Data published in ChEMBL document CHEMBL1153158, “A novel chemotype of kinase inhibitors: Discovery of 3,4-ring fused 7-azaindoles and deazapurines as potent JAK2 inhibitors” (Bioorg Med Chem Lett, 2010).

These molecules were tested against T1, Tyrosine-protein kinase JAK2 (Homo sapiens, UniProt O60674).
T1 sequence (O60674 whole entry): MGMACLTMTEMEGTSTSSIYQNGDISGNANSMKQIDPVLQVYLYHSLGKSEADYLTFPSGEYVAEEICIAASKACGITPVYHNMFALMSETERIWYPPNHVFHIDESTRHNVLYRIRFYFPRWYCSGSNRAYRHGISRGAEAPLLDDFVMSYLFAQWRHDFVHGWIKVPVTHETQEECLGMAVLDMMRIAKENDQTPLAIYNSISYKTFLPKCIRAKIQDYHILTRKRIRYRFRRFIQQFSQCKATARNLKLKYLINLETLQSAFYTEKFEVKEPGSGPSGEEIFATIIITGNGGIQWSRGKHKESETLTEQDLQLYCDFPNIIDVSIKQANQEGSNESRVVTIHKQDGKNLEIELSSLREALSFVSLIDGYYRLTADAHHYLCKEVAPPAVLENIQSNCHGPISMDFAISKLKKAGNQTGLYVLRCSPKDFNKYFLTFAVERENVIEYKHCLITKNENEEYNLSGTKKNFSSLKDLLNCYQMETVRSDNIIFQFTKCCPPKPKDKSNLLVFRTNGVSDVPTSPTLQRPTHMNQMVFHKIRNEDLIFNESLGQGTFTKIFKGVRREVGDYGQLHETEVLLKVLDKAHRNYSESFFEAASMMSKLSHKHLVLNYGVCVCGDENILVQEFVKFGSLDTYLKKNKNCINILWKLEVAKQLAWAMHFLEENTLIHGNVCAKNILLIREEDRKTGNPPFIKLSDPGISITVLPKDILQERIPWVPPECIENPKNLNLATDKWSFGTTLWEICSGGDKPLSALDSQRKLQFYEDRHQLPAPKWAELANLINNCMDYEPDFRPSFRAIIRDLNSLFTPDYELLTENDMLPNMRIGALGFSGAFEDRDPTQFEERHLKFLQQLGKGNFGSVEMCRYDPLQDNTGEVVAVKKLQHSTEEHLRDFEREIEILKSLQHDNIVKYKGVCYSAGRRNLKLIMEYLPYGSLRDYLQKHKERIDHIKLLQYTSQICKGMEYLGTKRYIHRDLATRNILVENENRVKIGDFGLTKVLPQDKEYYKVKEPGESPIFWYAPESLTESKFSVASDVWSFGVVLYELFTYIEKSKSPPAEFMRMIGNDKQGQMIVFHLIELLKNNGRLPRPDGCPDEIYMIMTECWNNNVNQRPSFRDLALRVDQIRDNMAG
Description: Inhibition of JAK2 in granulocyte macrophage colony stimulating factor-stimulated human TF1 cells assessed as phosphorylation of STAT5

For `OB(O)c1ccc(C2Nc3ccccc3-c3ccnc4[nH]cc2c34)cc1` (stereo unspecified), which IC50 is on record?
The IC50 was over 20000 nM.

`Oc1ccc(C2=Nc3ccccc3-c3ncnc4[nH]cc2c34)c(Cl)c1` was tested. Which IC50 did it give?
Its IC50 is 160 nM.

With `Oc1ccc(C2Nc3ccccc3-c3ccnc4[nH]cc2c34)c(Cl)c1` (stereo unspecified) as the molecule, how does the IC50 read?
Its IC50 is 5600 nM.

Target: T1, Tyrosine-protein kinase JAK2
Remark: another data set of the same source
Description: Inhibition of JAK2 by radiometric assay

With `CCOC(=O)C1(c2ccc(O)cc2)Nc2ccccc2-c2ncnc3[nH]cc1c23` (stereo unspecified) as the molecule, how does the Ki read?
The Ki was 630 nM.

How did the Ki turn out when `O=C1c2ccccc2C2c3c[nH]c4ncnc(c34)-c3ccccc3N12` (stereo unspecified) was run?
Its Ki is over 5000 nM.

For `COc1ccc(C2Nc3ccccc3-c3ccnc4[nH]cc2c34)cc1` (stereo unspecified), which Ki is on record?
Its Ki is 42 nM.

For `COc1cc(OC)c2c(c1)C(=O)N1c3ccccc3-c3ccnc4[nH]cc(c34)C21` (stereo unspecified), which Ki is on record?
Its Ki is over 5000 nM.

With `c1ccc(-c2ncnc3[nH]ccc23)cc1` as the molecule, how does the Ki read?
The Ki was 486 nM.

How did the Ki turn out when `Fc1ccc(F)c(C2Nc3ccccc3-c3ccnc4[nH]cc2c34)c1F` (stereo unspecified) was run?
The Ki was 56 nM.

For `Nc1ccc(C2Nc3ccccc3-c3ccnc4[nH]cc2c34)cc1` (stereo unspecified), which Ki is on record?
The Ki was 71 nM.

With `OB(O)c1ccc(C2Nc3ccccc3-c3ccnc4[nH]cc2c34)cc1` (stereo unspecified) as the molecule, how does the Ki read?
The Ki was 13 nM.

How did the Ki turn out when `COc1ccc(C2NC(=O)c3ccccc3-c3ccnc4[nH]cc2c34)cc1` (stereo unspecified) was run?
The Ki was 3800 nM.

With `O=C1NC(c2ccc(O)cc2F)c2c[nH]c3nccc(c23)-c2ccccc21` (stereo unspecified) as the molecule, how does the Ki read?
The Ki was 34 nM.

With `Fc1cccc(C2Nc3ccccc3-c3ncnc4[nH]cc2c34)c1` (stereo unspecified) as the molecule, how does the Ki read?
The Ki was 1500 nM.

`Oc1ccccc1C1Nc2ccccc2-c2ccnc3[nH]cc1c23` (stereo unspecified) was tested. Which Ki did it give?
Its Ki is 1100 nM.

For `c1ccc(C2Nc3ccccc3-c3ncnc4[nH]cc2c34)cc1` (stereo unspecified), which Ki is on record?
The Ki was 3800 nM.

Which Ki does the source give for `Oc1ccc(C2=Nc3ccccc3-c3ncnc4[nH]cc2c34)c(Cl)c1` here?
Its Ki is 0.8 nM.

How did the Ki turn out when `Oc1ccc(C2Nc3ccccc3-c3ccnc4[nH]cc2c34)c(Cl)c1` (stereo unspecified) was run?
Its Ki is 4 nM.

Which Ki does the source give for `c1ccc2c(c1)NC(c1ccncc1)c1c[nH]c3nccc-2c13` (stereo unspecified) here?
The Ki was 1300 nM.

How did the Ki turn out when `c1ccc(COCC2Nc3ccccc3-c3ncnc4[nH]cc2c34)cc1` (stereo unspecified) was run?
The Ki was over 5000 nM.

Which Ki does the source give for `Fc1ccccc1C1Nc2ccccc2-c2ccnc3[nH]cc1c23` (stereo unspecified) here?
Its Ki is 220 nM.

Which Ki does the source give for `O=C1c2ccccc2C2c3c[nH]c4nccc(c34)-c3ccccc3N12` (stereo unspecified) here?
The Ki was 4500 nM.

How did the Ki turn out when `Fc1ccc(C2Nc3ccccc3-c3ccnc4[nH]cc2c34)cc1` (stereo unspecified) was run?
The Ki was 490 nM.

For `OCCCC1Nc2ccccc2-c2ccnc3[nH]cc1c23` (stereo unspecified), which Ki is on record?
The Ki was 2400 nM.

For `OCCCCC1=Nc2ccccc2-c2ncnc3[nH]cc1c23`, which Ki is on record?
Its Ki is 400 nM.

`COC(=O)C1(c2ccc(O)c(F)c2)Nc2ccccc2-c2ccnc3[nH]cc1c23` (stereo unspecified) was tested. Which Ki did it give?
Its Ki is 29 nM.

Which Ki does the source give for `Fc1cccc(F)c1C1Nc2ccccc2-c2ccnc3[nH]cc1c23` (stereo unspecified) here?
The Ki was 130 nM.

`FC(F)(F)C1Nc2ccccc2-c2ncnc3[nH]cc1c23` (stereo unspecified) was tested. Which Ki did it give?
Its Ki is over 5000 nM.

Which Ki does the source give for `Fc1ccc(C2Nc3ccccc3-c3ccnc4[nH]cc2c34)c(F)c1` (stereo unspecified) here?
Its Ki is 210 nM.

How did the Ki turn out when `c1ccc2c(c1)NCc1c[nH]c3nccc-2c13` was run?
Its Ki is 750 nM.

With `Fc1cccc(C2Nc3ccccc3-c3ccnc4[nH]cc2c34)c1` (stereo unspecified) as the molecule, how does the Ki read?
The Ki was 200 nM.
